How the values were obtained:
FXa = FXa association rate constant; type: biochemical, human
Method: Determination of FXa association rate constants The association rate of ecotin with FXa was determined as follows. At reference time zero, ecotin (7 nM final concentration) was added to FXa (5 nM final concentration) and TNCT buffer in a total volume of 3.0 ml. Immediately thereafter, 150 μl aliquots were removed at intervals over a period of 10 min and added to microtiter wells containing 50 μl 5 mM Spectrozyme fXa. The absorbance of the wells was monitored at 405 nm. Initial rates were determined for each well using the initial linear portion of each data set. The concentration of free enzyme versus time was plotted and the curves fitted to equation 4; values for kon were determined by nonlinear regression analysis.
The rate of association of a reversible inhibitor with enzyme is given by equation 2: [formula] Since measurements were made during the initial phase of the reaction, where dissociation of the E·I complex is negligible, the second term of equation 2 can be ignored. Therefore the rate of association is given by equation 3: [formula] […] The association rate constant for ecotin with FXa was determined by measuring free enzyme as a function of time and fitting the data to equation (4) by nonlinear regression analysis. A value for kon =(1.35±0.08)×10^6 M^-1 s^-1 was calculated for ecotin with FXa (FIG. 4A); kon values for ecotin mutants are shown in Table I.

normal human plasma [1] = experiment: Prothrombin time (PT) clotting assay; type: biochemical; settings: initiation by TF
Method: Coagulation assays and Prolongation of Clotting Times Clotting times were performed using the ACL 300 Research Coagulation Analyzer. For the prothrombin time (PT) assays, the incubation time was set at 120 sec and acquisition time at 120 to 600 sec depending on the expected outcome of the assay. Membranes from 293 cells expressing TF (Paborsky, L. R. et al., Biochemistry 28:8072-8077 [1989]) were premixed with CaCl2. The sample (plasma and inhibitor) and reagent (CaCl2 /TF) were automatically mixed together after a 2 min incubation at 37° C. The clotting time was determined by optical assessment. The total incubation time of inhibitor with plasma before addition of CaCl2 /TF was ~5 min. Final concentrations were 78 nM to 7.8 μM ecotin, 3.7 nM TF (0.9 μg/ml by protein content), 22.5 mM CaCl2, and 50% plasma in a total volume of 160 μl.

normal human plasma [2] = experiment: Activated partial thromboplastin time (APTT) clotting assay; type: biochemical; settings: ellagic acid
Method: For the activated partial thromboplastin time (APTT) assays, the activation time was set at 120 sec and acquisition time at 300 to 600 sec depending on the expected outcome of the assay. Citrated normal human plasma and inhibitor were incubated together. The sample (plasma and inhibitor) and activator (Instrumentation Laboratories Ellagic acid/Phospholipid mix Test Reagent) were automatically pipetted and incubated together for 2 min at 37° C., then CaCl2 was added and clotting time determined by means of optical assessment. The total incubation time of inhibitor with plasma was ca. 3 min before addition of activator, and 5 min before addition of CaCl2. Final concentrations were 0.57 nM to 5.7 μM ecotin, 15.3 ug protein/ml 293 cell membranes, 8.3 uM ellagic acid, 8.3 mM CaCl2, and 33.3% plasma in a total volume of 162 μl.

Ecotin: E. coli periplasmic protein having the 142 amino acid residue sequence reported by McGrath et al.; recombinant, P1 Met84
time for complete inhibition of FXa (FXa; ca. 500 nM ecotin, maximum FXa concentration in blood ca. 200 nM): approximately 7.4 sec | association rate constant (kon) with FXa (FXa; full power of ten printed): 1.35e+06 M⁻¹ s⁻¹ | concentration causing 10-fold prolongation of clotting time, PT (normal human plasma [1]): ~2 μM | concentration causing 10-fold prolongation of clotting time, PT (normal human plasma [1]; listed as Wild type ecotin): ~ 2 μM | concentration causing 10-fold prolongation of clotting time, APTT (normal human plasma [2]): ~0.3 μM | concentration causing 10-fold prolongation of clotting time, APTT (normal human plasma [2]; listed as Wild type ecotin): ~ 0.3 μM

Source: patent US6113896A, “Pharmaceutical compositions containing ecotin and homologs thereof” (priority 1994, dated 2000)
